For experiment [1], the system named is KURAMOCHI
The experiment is described as follows: drug sensitivity score (DSS2) on cancer cell count; higher = more sensitive; extreme values may be limits of the assay. The conditions noted are these: 72 h. In a few lines:
(§1)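 Ovarian cancer cells grown alone or 1:1 with lung or skin fibroblasts in direct co-culture were treated for 72 h on 384-well plates carrying 528 approved and investigational compounds at 5 concentrations. Fixed cells were stained for CK8/18 with Hoechst and imaged to count cancer cells. A drug sensitivity score was then derived in Breeze from logistic curve fits.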

The test system of experiment [2] is OVCAR8. The description is as above. The conditions noted are these: 72 h. In a few lines: as §1
Setting [3] is: co-cultured fibroblast: BJHTERT.
[4] abbreviates: co-cultured fibroblast: none (monoculture).

The values that follow come from the supplement of paper PMC12420376.

Take `Cc1cccc(-c2nn3c(c2-c2ccnc4ccc(C(N)=O)cc24)CCC3)n1` [Galunisertib]: the drug sensitivity score turned out to be 3.4 DSS in experiment [1] (setting [3]); 0 DSS in experiment [1] (co-cultured fibroblast: WI38); 13.8 DSS in experiment [1] (setting [4]); 0 DSS in experiment [2] (setting [3]); 0 DSS in experiment [2] (co-cultured fibroblast: WI38); 0 DSS in experiment [2] (setting [4]).

Take `CCC(C)(C)C(=O)O[C@H]1C[C@@H](C)C=C2C=C[C@H](C)[C@H](CC[C@@H]3C[C@@H](O)CC(=O)O3)[C@H]21` [Simvastatin]: the drug sensitivity score in experiment [1] (setting [3]) turned out to be 0.4 DSS; in experiment [1] (co-cultured fibroblast: WI38), 0 DSS; in experiment [1] (setting [4]), 8.6 DSS; in experiment [2] (setting [3]) it was 1.8 DSS; in experiment [2] (co-cultured fibroblast: WI38) it was 14.6 DSS; in experiment [2] (setting [4]), 3.6 DSS.

With `CC(=O)N(O)CCCCCNC(=O)CCC(=O)N(O)CCCCCNC(=O)CCC(=O)N(O)CCCCCN` [Deferoxamine], the drug sensitivity score in experiment [1] (setting [3]) came out at 4.5 DSS; in experiment [1] (co-cultured fibroblast: WI38), 7.3 DSS; in experiment [1] (setting [4]) it was 1.6 DSS; in experiment [2] (setting [3]) it was 3.6 DSS; in experiment [2] (co-cultured fibroblast: WI38), 3.5 DSS; in experiment [2] (setting [4]), 7.7 DSS.

Consider `COc1ccc(S(=O)(=O)Nc2cccnc2Nc2ccc(O)cc2)cc1` [ABT-751], for which the drug sensitivity score in experiment [1] (setting [3]) is 14.5 DSS; in experiment [1] (co-cultured fibroblast: WI38) it was 17.3 DSS; in experiment [1] (setting [4]), 17.9 DSS; in experiment [2] (setting [3]) it was 18.7 DSS; in experiment [2] (co-cultured fibroblast: WI38), 15.9 DSS; in experiment [2] (setting [4]), 19.3 DSS.

As for `N#Cc1ccc(COC[C@H]2O[C@@H](n3c(NCc4ccc(Cl)c(Cl)c4)nc4c(N)ncnc43)[C@H](O)[C@@H]2O)cc1`, the drug sensitivity score in experiment [1] (setting [3]) came out at 4.2 DSS; in experiment [1] (co-cultured fibroblast: WI38), 3.3 DSS; in experiment [1] (setting [4]) it was 3.1 DSS; in experiment [2] (setting [3]) it was 1 DSS; in experiment [2] (co-cultured fibroblast: WI38), 0 DSS; in experiment [2] (setting [4]), 5.5 DSS.

As for `CCCCc1nc2cc(/C=C/C(=O)NO)ccc2n1CCN(CC)CC` [Pracinostat], the drug sensitivity score in experiment [1] (setting [3]) stood at 15.7 DSS; in experiment [1] (co-cultured fibroblast: WI38), 20.4 DSS; in experiment [1] (setting [4]) it was 19.8 DSS; in experiment [2] (setting [3]) it was 23.1 DSS; in experiment [2] (co-cultured fibroblast: WI38) it was 20.4 DSS; in experiment [2] (setting [4]) it was 25.5 DSS.

As to `CC[C@@H](C(=O)[C@@H](C)[C@@H](O)[C@H](C)[C@@H]1O[C@@H]([C@@H](CC)C(=O)O)CC[C@@H]1C)[C@H]1O[C@]2(C=C[C@@H](O)[C@]3(CC[C@@](C)([C@H]4CC[C@](O)(CC)[C@H](C)O4)O3)O2)[C@H](C)C[C@@H]1C` [Salinomycin], the drug sensitivity score came out at 23.1 DSS in experiment [1] (setting [3]); 23.6 DSS in experiment [1] (co-cultured fibroblast: WI38); 28.5 DSS in experiment [1] (setting [4]); 22.1 DSS in experiment [2] (setting [3]); 12.2 DSS in experiment [2] (co-cultured fibroblast: WI38); 21.1 DSS in experiment [2] (setting [4]).

Take `O=C(NOC[C@H](O)CO)c1ccc(F)c(F)c1Nc1ccc(I)cc1F`: the drug sensitivity score in experiment [1] (setting [3]) was 8.8 DSS; in experiment [1] (co-cultured fibroblast: WI38), 0.8 DSS; in experiment [1] (setting [4]), 3.3 DSS; in experiment [2] (setting [3]) it was 7.7 DSS; in experiment [2] (co-cultured fibroblast: WI38), 0 DSS; in experiment [2] (setting [4]) it was 10.6 DSS.

For the compound `COCCOc1cnc2ccn([C@H](C)c3nnc4c(F)cc(-c5cnn(C)c5)cn34)c(=O)c2c1` [AMG-337], the drug sensitivity score in experiment [1] (setting [3]), in experiment [1] (co-cultured fibroblast: WI38), in experiment [1] (setting [4]), in experiment [2] (setting [3]), in experiment [2] (co-cultured fibroblast: WI38) and in experiment [2] (setting [4]) was 0 DSS each time.

In the case of `Cc1ncc(Cl)cc1NCc1ccc(C(=O)N[C@@H](CC2CCCC2)C(=O)NC2CC2)s1`, the drug sensitivity score in experiment [1] (setting [3]), in experiment [1] (co-cultured fibroblast: WI38), in experiment [1] (setting [4]), in experiment [2] (setting [3]), in experiment [2] (co-cultured fibroblast: WI38) and in experiment [2] (setting [4]) was 0 DSS each time.

For `CC1(C)CCC(c2ccc(Cl)cc2)=C(CN2CCN(c3ccc(C(=O)NS(=O)(=O)c4ccc(N[C@H](CCN5CCOCC5)CSc5ccccc5)c(S(=O)(=O)C(F)(F)F)c4)cc3)CC2)C1` [Navitoclax], the drug sensitivity score in experiment [1] (setting [3]) stood at 2.4 DSS; in experiment [1] (co-cultured fibroblast: WI38) it was 3.1 DSS; in experiment [1] (setting [4]), 1.1 DSS; in experiment [2] (setting [3]), 7.5 DSS; in experiment [2] (co-cultured fibroblast: WI38), 0 DSS; in experiment [2] (setting [4]), 0.3 DSS.

As to `CCC/C=C/C=C/C(=O)O[C@H]1/C(=C/C(=O)OC)C[C@H]2C[C@H]([C@@H](C)O)OC(=O)C[C@H](O)C[C@@H]3C[C@H](OC(C)=O)C(C)(C)[C@](O)(C[C@@H]4C/C(=C/C(=O)OC)C[C@H](/C=C/C(C)(C)[C@]1(O)O2)O4)O3` [Bryostatin 1], the drug sensitivity score came to 0 DSS in experiment [1] (setting [3]); 0 DSS in experiment [1] (co-cultured fibroblast: WI38); 6.4 DSS in experiment [1] (setting [4]); 2.9 DSS in experiment [2] (setting [3]); 0 DSS in experiment [2] (co-cultured fibroblast: WI38); 0 DSS in experiment [2] (setting [4]).

As to `CC(C)(C)c1nc(-c2cccc(NS(=O)(=O)c3c(F)cccc3F)c2F)c(-c2ccnc(N)n2)s1` [Dabrafenib], the drug sensitivity score stood at 0 DSS in experiment [1] (setting [3]); 0 DSS in experiment [1] (co-cultured fibroblast: WI38); 0 DSS in experiment [1] (setting [4]); 0.2 DSS in experiment [2] (setting [3]); 15.2 DSS in experiment [2] (co-cultured fibroblast: WI38); 0.5 DSS in experiment [2] (setting [4]).

Regarding `C[C@]12CC[C@H](O)CC1=CC[C@@H]1[C@@H]2CC[C@]2(C)C(c3cccnc3)=CC[C@@H]12` [Abiraterone], the drug sensitivity score in experiment [1] (setting [3]), in experiment [1] (co-cultured fibroblast: WI38), in experiment [1] (setting [4]), in experiment [2] (setting [3]), in experiment [2] (co-cultured fibroblast: WI38) and in experiment [2] (setting [4]) was 0 DSS throughout.

For the compound `Cc1cc(C(C)Nc2ccccc2)c2nc(N3CCOCC3)cc(=O)n2c1` (configuration not stated) [TGX-221], the drug sensitivity score in experiment [1] (setting [3]) worked out at 7.7 DSS; in experiment [1] (co-cultured fibroblast: WI38), 0 DSS; in experiment [1] (setting [4]), 4 DSS; in experiment [2] (setting [3]), 8.5 DSS; in experiment [2] (co-cultured fibroblast: WI38) it was 7.2 DSS; in experiment [2] (setting [4]) it was 0 DSS.

With `Cc1c2oc3c(C)ccc(C(=O)N[C@@H]4C(=O)N[C@H](C(C)C)C(=O)N5CCC[C@H]5C(=O)N(C)CC(=O)N(C)[C@@H](C(C)C)C(=O)O[C@@H]4C)c3nc-2c(C(=O)N[C@@H]2C(=O)N[C@H](C(C)C)C(=O)N3CCC[C@H]3C(=O)N(C)CC(=O)N(C)[C@@H](C(C)C)C(=O)O[C@@H]2C)c(N)c1=O` [Dactinomycin], the drug sensitivity score came to 25.7 DSS in experiment [1] (setting [3]); 25.9 DSS in experiment [1] (co-cultured fibroblast: WI38); 34 DSS in experiment [1] (setting [4]); 31.6 DSS in experiment [2] (setting [3]); 32.4 DSS in experiment [2] (co-cultured fibroblast: WI38); 31.8 DSS in experiment [2] (setting [4]).

`Cc1cnc(NC(=O)Nc2cc(Br)c(C)cc2OC[C@@H]2CNCCO2)cn1` [Rabusertib]: the drug sensitivity score was 0.4 DSS in experiment [1] (setting [3]); 0 DSS in experiment [1] (co-cultured fibroblast: WI38); 0 DSS in experiment [1] (setting [4]); 0.2 DSS in experiment [2] (setting [3]); 0 DSS in experiment [2] (co-cultured fibroblast: WI38); 0 DSS in experiment [2] (setting [4]).
